In ChEMBL document CHEMBL3286249 (Eur J Med Chem, 2014) one finds Ki data, which are given here for 20 compounds.

Each structure is given as a SMILES string. pKi: −log10 of the molar value.

The first assay addresses Carbonic anhydrase 9 (Homo sapiens, UniProt Q16790).
As a reminder, the pKi is the Ki on a negative log10 scale, so that one unit is a factor of ten. Low readings indicate a large Ki, high ones a small Ki. The compound `NS(=O)(=O)c1cc(-c2nnc(-c3ccccc3)[nH]2)c(Cl)cc1Cl` had a pKi of 8.01.
`NS(=O)(=O)c1cc(-c2nnc(Nc3ccccc3)o2)c(Cl)cc1Cl`: the pKi is 7.86.
The same measure, in the same setting: the same measure for `NS(=O)(=O)c1cc(-c2nnc(Nc3ccc(Cl)cc3)o2)c(Cl)cc1Cl`: 7.82; for `NS(=O)(=O)c1cc(-c2nnc(-c3ccccc3)o2)c(Cl)cc1Cl`: 7.88.
`NS(=O)(=O)c1cc(-c2nnc(-c3ccc(Cl)cc3)o2)c(Cl)cc1Cl`: the negative logarithm of the Ki (pKi) is 7.96.
The same measure, in the same setting: the same measure for `NS(=O)(=O)c1cc(-c2nnc(-c3ccccc3)s2)c(Cl)cc1Cl`: 7.87; for `NS(=O)(=O)c1cc(NC(=O)Nc2ccccc2)c(Cl)cc1Cl`: 8.15; for `NS(=O)(=O)c1cc(NC(=O)Nc2ccc(Cl)cc2)c(Cl)cc1Cl`: 8.15.
Still for that read-out and setting: next, `NS(=O)(=O)c1ccc(NC(=O)Nc2cc(S(N)(=O)=O)c(Cl)cc2Cl)cc1`: 7.80.
Compound `NS(=O)(=O)c1cc(NC(=O)NOCc2ccccc2)c(Cl)cc1Cl` gave a pKi of 7.72.
With `NS(=O)(=O)c1cc(NC(=O)NNC(=O)c2ccccc2)c(Cl)cc1Cl`, the pKi was 7.90.
In turn, `NS(=O)(=O)c1cc(NC(=O)NCCCN2CCOCC2)c(Cl)cc1Cl` showed a pKi of 7.42.
Take `NS(=O)(=O)c1cc(NC(=O)N2CCN(Cc3ccc4c(c3)OCO4)CC2)c(Cl)cc1Cl`: the pKi was 7.12.
Still for that read-out and setting: the same measure for `NS(=O)(=O)c1cc(C(=O)NNC(=S)Nc2ccccc2)c(Cl)cc1Cl`: 7.51.
The same measure, in the same setting: next, `NS(=O)(=O)c1cc(C(=O)NNC(=S)Nc2ccc(Cl)cc2)c(Cl)cc1Cl`: 7.57.
For the compound `Cc1ccc(S(=O)(=O)NC(=O)NNC(=O)c2cc(S(N)(=O)=O)c(Cl)cc2Cl)cc1`, the pKi is 7.82.
`NS(=O)(=O)c1cc(C(=O)NNC(=O)c2ccco2)c(Cl)cc1Cl` gave a pKi of 8.41.
`NS(=O)(=O)c1cc(C(=O)NNC(=O)c2ccccc2)c(Cl)cc1Cl` gave a pKi of 7.99.
On to `Cc1ccc(C(=O)NNC(=O)c2cc(S(N)(=O)=O)c(Cl)cc2Cl)cc1`, for which the pKi was 8.26.

Another assay deals with Carbonic anhydrase 1 (Homo sapiens, UniProt P00915).
Chain of Carbonic anhydrase 1 (P00915 whole entry): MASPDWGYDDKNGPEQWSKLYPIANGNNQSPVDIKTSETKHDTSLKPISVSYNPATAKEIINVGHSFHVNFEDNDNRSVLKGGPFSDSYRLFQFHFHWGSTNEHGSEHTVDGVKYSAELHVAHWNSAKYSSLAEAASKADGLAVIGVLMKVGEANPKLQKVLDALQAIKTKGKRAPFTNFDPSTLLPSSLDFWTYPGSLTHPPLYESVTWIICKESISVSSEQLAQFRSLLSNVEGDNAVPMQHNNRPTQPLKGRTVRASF
In turn, `Cc1nnc(-c2cc(S(N)(=O)=O)c(Cl)cc2Cl)o1` had a pKi of 6.14.

For the next assay, the target named is Carbonic anhydrase 2 (Homo sapiens, UniProt P00918).
For the compound `Cc1nnc(-c2cc(S(N)(=O)=O)c(Cl)cc2Cl)o1`, the pKi was 8.06.

The target of another assay is Carbonic anhydrase 12 (Homo sapiens, UniProt O43570).
Chain of Carbonic anhydrase 12 (O43570 whole entry): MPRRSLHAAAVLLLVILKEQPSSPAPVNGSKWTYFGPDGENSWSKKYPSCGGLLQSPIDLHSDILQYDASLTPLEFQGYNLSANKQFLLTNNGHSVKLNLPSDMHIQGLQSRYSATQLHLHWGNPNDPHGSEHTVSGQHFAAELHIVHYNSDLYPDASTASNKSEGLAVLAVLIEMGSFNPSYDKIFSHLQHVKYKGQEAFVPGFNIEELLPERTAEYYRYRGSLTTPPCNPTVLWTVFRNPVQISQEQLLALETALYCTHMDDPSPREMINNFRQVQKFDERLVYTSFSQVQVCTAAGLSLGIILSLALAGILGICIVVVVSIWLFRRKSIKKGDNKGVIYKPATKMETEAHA
`Cc1nnc(-c2cc(S(N)(=O)=O)c(Cl)cc2Cl)o1` had a pKi of 8.20.
